Patent US20060057732A1, “Methods in the diagnosis of pulmonary embolism” (Aerocrine AB, priority 2004, published 2006)

Assays:
[1] = Thrombin infusion as pro-thrombotic challenge; type: in vivo, rabbit; settings: thrombin 10-250 Units; when cardiovascular parameters indicated a thrombotic event
Method: Another experiment was performed with infusion of thrombin (10-250 Units) as pro-thrombotic challenge. Also in this experiment, an increase in exhaled NO was obtained when measurement of cardiovascular parameters indicated an activation of a thrombotic event.

NO-production = test: L-NAME pre-treatment (inhibited NO-production) before and during muscle emboli challenge in anaesthetised rabbits (Group 2); type: in vivo
Method: The experiments were approved by the local animal ethics committee. Male white New Zealand rabbits (n=20, body weight 2.456±0.086 kg) were anaesthetised via an ear vein with sodium pentobarbital, 6 mg ml^−1 in normal saline, 40-60 mg kg^−1. The animals were placed in supine position and tracheotomised just below the cricoid cartilage to allow mechanical ventilation using a tracheal cannula with an outer diameter of 5 mm. The animals were ventilated by a Harvard Apparatus rodent ventilator (model 683, Harvard Apparatus, South Natick, Mass., USA). The ventilator was supplied with NO-free air using a charcoal filter (110×11 cm). Ventilation rate was 40 min^−1 at constant volume where the tidal volume was initially adjusted to keep the end-tidal CO2 at 4.5-5.3% as determined by a ventilatory monitor (Oscar-Oxy, Datex, Helsinki, Finland) sampling gas (150 ml min^−1, 15-20% of minute ventilation) from one of two side-arms connected to the tracheal cannula, and using a de-humidifying tube. The minute ventilation was 0.64-0.96 l min^−1. To the other side arm a pressure transducer (Statham, Hato Rey, Puerto Rico) was connected thus monitoring the insufflation pressure. The gas from the ventilator outlet was led through a switching valve to either of two beakers creating a positive end-expiratory pressure (PEEP) of 1-2 cmH2O or 4-5 cmH2O. During the experiment the gas flow was altered between the lower PEEP (9 min) and the higher PEEP (1 min) with an interval of totally 10 min. A continuous infusion containing glucose (24.3 g l^−1), dextran 70 (26.5 g l^−1), NaHCO3 (6,2 g l^−1), sodium pentobarbital (4.1 g l^−1) and pancuronium bromide ([…]) was administrated at a rate of 5 ml kg^−1 h^−1 via the same ear vein by means of a Terumo STC-521 syringe pump (Terumo Corp., Tokyo, Japan). A heparinised catheter was inserted in the left common carotid artery for blood pressure and heart rate recordings (pressure transducer, Staham, Hato Rey, Puerto Rico), and arterial blood sampling. Another catheter was inserted in the right jugular vein for drug and muscle emboli administration. Body temperature was maintained at 37-38.5° C. by means of a heating pad connected to a thermostat. The muscles from the anterior compartment of the right lower hind limb were resected and placed in normal saline. Hereafter the animals were allowed a 30-60 min intervention-free period to obtain stable circulatory conditions and stable concentrations of expired NO.
NO concentration, in mixed exhaled gas, was continuously measured by means of a chemiluminescence based system (NIOX®, AEROCRINE AB, Solna, Sweden) sampling at 100 ml min^−1 at the end of a mixing chamber connected to the ventilator exhaust. The full mixing of expired air thus measured on was intermittently checked by monitor CO2 concentration in the same chamber. In a few experiments, gas for NO measurement was sampled from the trachea at the same point as for tidal CO2 measurements, thus yielding breath by breath NO concentrations. Calibration was done using certified NO standard gas in nitrogen (AGA Specialgas, Lidingö, Sweden).
The resected muscle tissue was cleared from all visible connective tissue and then homogenized and dissolved in normal saline to a concentration of 0,1 g muscle ml^−1. 50 IE heparin was added to the mixture. The homogenate was filtered through a filter (500 μm) to prevent clotting in the three way stop-cock.
The animals were divided into two groups; 1) one group receiving a high dose (58-120 mg kg^−1) muscle homogenate and 2) a second group receiving the nitric oxide inhibitor L-NAME (30 mg kg^−1) 40 min before challenge with lower doses (30 to 7.5 mg kg^−1) muscle homogenate, since initial pilot experiments indicated a marked enhancement of emboli effects after L-NAME pre-treatment. […]

[2] = Group 2, during L-NAME pre-treatment, time -5 min, before challenge

| Compound | exhaled NO change [1] | PaCO2 (NO-production; [2]) [kPa] | PaO2 (NO-production; [2]) [kPa] | pH (arterial) (NO-production; [2]) | ETCO2 after L-NAME infusion (NO-production; L-NAME 30 mg kg-1, before muscle emboli challenge (time=-5), before L-NAME 4.9±0.1) [kPa] | FENO after L-NAME infusion (NO-production; L-NAME 30 mg kg-1, before muscle emboli challenge (time=-5), before L-NAME 20.9±1.0 ppb, n=4) [ppb] | MAP after L-NAME infusion (NO-production; L-NAME 30 mg kg-1, before muscle emboli challenge (time=-5), before L-NAME 105±6) [cmH2O] | HR after L-NAME infusion (NO-production; L-NAME 30 mg kg-1, before muscle emboli challenge (time=-5), before L-NAME 286±11) [beats min^-1] | ETCO2, lowest observed value (NO-production; L-NAME 30 mg kg-1 pre-treatment + muscle emboli infusion, at 4 min, n=4 incl. dead animals) [kPa] | MAP, first drop (NO-production; L-NAME 30 mg kg-1 pre-treatment + muscle emboli infusion, at 12 min) [cmH2O] | MAP, lowest observed value (NO-production; L-NAME 30 mg kg-1 pre-treatment + muscle emboli infusion, at 60 min) [cmH2O] | HR change (NO-production; L-NAME 30 mg kg-1 pre-treatment + muscle emboli infusion, not significant) | Survival after muscle emboli infusion (NO-production; L-NAME 30 mg kg-1 pre-treatment, 7.5 to 30 mg kg-1 homogenate, four rabbits) |
| --- | --- | --- | --- | --- | --- | --- | --- | --- | --- | --- | --- | --- | --- |
| thrombin | increase | – | – | – | – | – | – | – | – | – | – | – | – |
| COC(=O)[C@@H](N)CCCNC(=N)N[N+](=O)[O-] [L-NAME, N^G-nitro-L-arginine methyl ester] | – | 4.3 ± 0.2 | 8.6 ± 0.6 | 7.50 ± 0.02 | 4.8±0.2 | 0 | 121±8.2 | 314±34 | 2.6±1.1 | 52.4±25.5 | 44.4±29.6 | decreased | two animals survived 60 min |
